Data reported in PubChem BioAssay AID1259407 (Chemical Carcinogenesis Research Information System (CCRIS), 2018).
Active and inactive are the calls of the source. How the calls were made is not given here.

Tested on: CCRIS mutagenicity, Ames/micronucleus/aberration tests
Assay: CCRIS mutagenicity studies
[1] = Test System: AMES SALMONELLA TYPHIMURIUM, Strain/Indicator: TA100, Metabolic Activation: NONE, Method: STANDARD PLATE
[2] = Test System: AMES SALMONELLA TYPHIMURIUM, Strain/Indicator: TA1535, Metabolic Activation: NONE, Method: STANDARD PLATE

Measured: mutagenic call

C=C(C)C(C)=O
inactive: Test System: AMES SALMONELLA TYPHIMURIUM, Strain/Indicator: TA98, Metabolic Activation: HAMSTER, LIVER, S-9, AROCLOR 1254, Method: STANDARD PLATE inactive; negative | Test System: AMES SALMONELLA TYPHIMURIUM, Strain/Indicator: TA98, Metabolic Activation: NONE, Method: STANDARD PLATE inactive; negative | Test System: AMES SALMONELLA TYPHIMURIUM, Strain/Indicator: TA98, Metabolic Activation: RAT, LIVER, S-9, AROCLOR 1254, Method: STANDARD PLATE inactive; negative | Test System: AMES SALMONELLA TYPHIMURIUM, Strain/Indicator: TA100, Metabolic Activation: HAMSTER, LIVER, S-9, AROCLOR 1254, Method: STANDARD PLATE inactive; negative | [1] inactive; negative | Test System: AMES SALMONELLA TYPHIMURIUM, Strain/Indicator: TA100, Metabolic Activation: RAT, LIVER, S-9, AROCLOR 1254, Method: STANDARD PLATE inactive; negative | Test System: AMES SALMONELLA TYPHIMURIUM, Strain/Indicator: TA1535, Metabolic Activation: HAMSTER, LIVER, S-9, AROCLOR 1254, Method: STANDARD PLATE inactive; negative | [2] inactive; negative | Test System: AMES SALMONELLA TYPHIMURIUM, Strain/Indicator: TA1535, Metabolic Activation: RAT, LIVER, S-9, AROCLOR 1254, Method: STANDARD PLATE inactive; negative | Test System: AMES SALMONELLA TYPHIMURIUM, Strain/Indicator: TA1537, Metabolic Activation: HAMSTER, LIVER, S-9, AROCLOR 1254, Method: STANDARD PLATE inactive; negative | Test System: AMES SALMONELLA TYPHIMURIUM, Strain/Indicator: TA1537, Metabolic Activation: NONE, Method: STANDARD PLATE inactive; negative | Test System: AMES SALMONELLA TYPHIMURIUM, Strain/Indicator: TA1537, Metabolic Activation: RAT, LIVER, S-9, AROCLOR 1254, Method: STANDARD PLATE inactive; negative | Test System: AMES SALMONELLA TYPHIMURIUM, Strain/Indicator: TA1538, Metabolic Activation: HAMSTER, LIVER, S-9, AROCLOR 1254, Method: STANDARD PLATE inactive; negative | Test System: AMES SALMONELLA TYPHIMURIUM, Strain/Indicator: TA1538, Metabolic Activation: NONE, Method: STANDARD PLATE inactive; negative | Test System: AMES SALMONELLA TYPHIMURIUM, Strain/Indicator: TA1538, Metabolic Activation: RAT, LIVER, S-9, AROCLOR 1254, Method: STANDARD PLATE inactive; negative
active: Test System: Mouse lymphoma, Strain/Indicator: L5178Y (tk+/tk-), Metabolic Activation: None, Method: Suspension/plate active; positive | Test System: Mouse lymphoma, Strain/Indicator: L5178Y (tk+/tk-), Metabolic Activation: Rat, Liver, S-9, Aroclor 1254, Method: Suspension/plate active; positive

Cc1nc(N)cc2[nH]c3ccccc3c12
inactive: Test System: AMES SALMONELLA TYPHIMURIUM, Strain/Indicator: TA100, Metabolic Activation: RAT, LIVER, S-9, AROCLOR 1254, Method: PREINCUBATION inactive; negative | Test System: UDS HAMSTER HEPATOCYTES, Strain/Indicator: THY INCORP, Metabolic Activation: NONE, Method: LIQUID SCINTILLATION COUNTING inactive; negative | Test System: UDS RAT HEPATOCYTES, Strain/Indicator: THY INCORP, Metabolic Activation: NONE, Method: LIQUID SCINTILLATION COUNTING inactive; negative
active: Test System: AMES SALMONELLA TYPHIMURIUM, Strain/Indicator: TA98, Metabolic Activation: HUMAN, BLOOD, CYTOSOL, Method: PREINCUBATION active; positive | Test System: AMES SALMONELLA TYPHIMURIUM, Strain/Indicator: TA98, Metabolic Activation: MOUSE, LIVER, HEPATOCYTES active; positive | Test System: AMES SALMONELLA TYPHIMURIUM, Strain/Indicator: TA98, Metabolic Activation: MOUSE, LIVER, HEPATOCYTES, 2,3,7,8-TETRACHLORODIBENZO-P-DIOXIN active; positive | Test System: AMES SALMONELLA TYPHIMURIUM, Strain/Indicator: TA98, Metabolic Activation: MOUSE, LIVER, MICROSOMES active; positive | Test System: AMES SALMONELLA TYPHIMURIUM, Strain/Indicator: TA98, Metabolic Activation: MOUSE, LIVER, MICROSOMES, 2,3,7,8-TETRACHLORODIBENZO-P-DIOXIN active; positive | Test System: AMES SALMONELLA TYPHIMURIUM, Strain/Indicator: TA98, Metabolic Activation: MOUSE, LIVER, MICROSOMES, TCDD, Method: STANDARD PLATE active; positive | Test System: AMES SALMONELLA TYPHIMURIUM, Strain/Indicator: TA98, Metabolic Activation: MOUSE, LIVER, MICROSOMES, Method: STANDARD PLATE active; positive | Test System: AMES SALMONELLA TYPHIMURIUM, Strain/Indicator: TA98, Metabolic Activation: RAT, BLADDER, S-9, PCB, Method: FLUCTUATION TEST active; positive | Test System: AMES SALMONELLA TYPHIMURIUM, Strain/Indicator: TA98, Metabolic Activation: RAT, HEPATOCYTES, AROCLOR 1254, Method: PREINCUBATION active; positive | Test System: AMES SALMONELLA TYPHIMURIUM, Strain/Indicator: TA98, Metabolic Activation: RAT, LIVER, S-9, AROCLOR 1254, Method: PREINCUBATION active; positive | Test System: AMES SALMONELLA TYPHIMURIUM, Strain/Indicator: TA100, Metabolic Activation: RAT, BLADDER, S-9, PCB, Method: FLUCTUATION TEST active; positive | Test System: AMES SALMONELLA TYPHIMURIUM, Strain/Indicator: YG1019, Metabolic Activation: RAT LIVER S-9, AROCLOR, Method: PREINCUBATION active; positive

Nc1cc2c3c(cccc3c1)-c1ccccc1-2
active: Test System: AMES SALMONELLA TYPHIMURIUM, Strain/Indicator: TA98, Metabolic Activation: RAT, LIVER, S-9, AROCLOR 1254 (2 OR 4%), Method: STANDARD PLATE active; positive | Test System: AMES SALMONELLA TYPHIMURIUM, Strain/Indicator: TA100, Metabolic Activation: RAT, LIVER, S-9, AROCLOR 1254 (4%), Method: STANDARD PLATE active; positive | Test System: AMES SALMONELLA TYPHIMURIUM, Strain/Indicator: TA1535, Metabolic Activation: RAT, LIVER, S-9, AROCLOR 1254 (4%), Method: STANDARD PLATE active; positive | Test System: AMES SALMONELLA TYPHIMURIUM, Strain/Indicator: TA1537, Metabolic Activation: RAT, LIVER, S-9, AROCLOR 1254 (4%), Method: STANDARD PLATE active; positive

[N-]=[N+]=NC[C@@H](O)[C@H](O)[C@H](O)[C@@H](O)CO
active: [2] active; positive

O=S(=O)(O)OCc1ccc2ccc3cccc4ccc1c2c34
active: Test System: AMES SALMONELLA TYPHIMURIUM, Strain/Indicator: TA98, Metabolic Activation: NONE, Method: PREINCUBATION active; positive

ClC[C@@H]1CO1
active: Test System: AMES SALMONELLA TYPHIMURIUM, Strain/Indicator: TA100, Metabolic Activation: NONE, Method: PREINCUBATION active; positive | [1] active; positive | Test System: AMES SALMONELLA TYPHIMURIUM, Strain/Indicator: TA100, Metabolic Activation: RAT, LIVER, S-9, PCB, Method: PREINCUBATION active; positive
